From patent publication US7351737B2, “4-[(8-substituted)-6-chromanoyl]-and 4-[8-substituted)-chroman-6-YL-ethynyl]-benzoic and phenylacetic acids, their esters and salts having cytochrome P450RAI inhibitory activity” (Allergan, Inc., priority 2002, dated 2008)

Key:
P450RAI-2 = target: T1, P450RAI-2 (Homo sapiens, UniProt Q9NR63); assay: P450RAI-2 cell-based inhibitor assay ([3H]-RA metabolism, intact cells); conditions: P450RAI-2 stably transfected HeLa cells, 3 hours at 37° C., all-trans-RA metabolism; read-out: P450RAI INHIBITION DATA RAI-2 Intact Cells IC50
T1 construct: expressed in transfected cells; host or cells: HeLa
T1 sequence (Q9NR63 1-512): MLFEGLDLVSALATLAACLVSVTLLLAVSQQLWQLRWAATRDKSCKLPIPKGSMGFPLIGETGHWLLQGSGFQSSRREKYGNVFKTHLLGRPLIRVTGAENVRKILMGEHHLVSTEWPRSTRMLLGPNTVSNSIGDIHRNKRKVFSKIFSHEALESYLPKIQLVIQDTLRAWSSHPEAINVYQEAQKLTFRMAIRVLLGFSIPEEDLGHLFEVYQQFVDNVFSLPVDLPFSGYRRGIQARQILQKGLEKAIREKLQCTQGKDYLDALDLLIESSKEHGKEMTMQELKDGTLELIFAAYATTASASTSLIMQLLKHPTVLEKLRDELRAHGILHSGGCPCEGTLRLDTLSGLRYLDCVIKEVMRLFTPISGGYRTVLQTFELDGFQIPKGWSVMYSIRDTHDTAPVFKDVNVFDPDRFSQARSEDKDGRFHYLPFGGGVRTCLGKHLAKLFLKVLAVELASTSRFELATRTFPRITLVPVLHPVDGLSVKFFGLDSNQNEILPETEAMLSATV
Protocol: FIG. 1 is a schematic representation of the P450RAI cell based assay utilized to evaluate the ability of the compounds of the invention to inhibit the Cytochrome P450RAI enzyme.
P450RAI-1 and P450RAI-2 Cell-Based Inhibitor Assay:
P450RAI-1 stably transfected HeLa cells, or P450RAI-2 stably transfected HeLa cells, as applicable, are maintained in […] tissue culture dishes in Modified Eagle's Medium (MEM) containing 10% Fetal Bovine Serum (FBS) and 100 μg/ml hygromycin. Exponentially growing cells are harvested by incubating in trypsin. Cells are then washed with 1X Phosphate Buffered Saline (PBS) and plated in a 48-well plate at 5×10^5 cells in 0.2 ml MEM medium containing 10% FBS and 0.05 μCi [^3H]-RA in the presence or absence of increasing concentrations of the test compounds. The compounds are diluted in 100% DMSO and then added in triplicate wells at either 10, 1 or 0.1 μM final concentration. As a positive control for RA metabolism inhibition, cells are also incubated with ketoconazole at 100, 10 and 1 μM. Cells are incubated for 3 hours at 37° C. The retinoids are then extracted using the procedure of Bligh et al. (1959) Canadian Journal of Biochemistry 37, 911-917, modified by using methylenechloride instead of chloroform. The publication Bligh et al. (1959) Canadian Journal of Biochemistry 37, 911-917 is specifically incorporated herein by reference. The water soluble radioactivity is quantified using a β-scintillation counter. IC50 values represent the concentration of inhibitor required to inhibit all-trans-RA metabolism by 50 percent and are derived manually from log-transformed data.

RARβ = target: T2, RARβ (Homo sapiens, UniProt P10826); assay: ligand binding assay, RARβ; conditions: last item of cell, read-out: RAR β Kd
T2 sequence (P10826 1-455): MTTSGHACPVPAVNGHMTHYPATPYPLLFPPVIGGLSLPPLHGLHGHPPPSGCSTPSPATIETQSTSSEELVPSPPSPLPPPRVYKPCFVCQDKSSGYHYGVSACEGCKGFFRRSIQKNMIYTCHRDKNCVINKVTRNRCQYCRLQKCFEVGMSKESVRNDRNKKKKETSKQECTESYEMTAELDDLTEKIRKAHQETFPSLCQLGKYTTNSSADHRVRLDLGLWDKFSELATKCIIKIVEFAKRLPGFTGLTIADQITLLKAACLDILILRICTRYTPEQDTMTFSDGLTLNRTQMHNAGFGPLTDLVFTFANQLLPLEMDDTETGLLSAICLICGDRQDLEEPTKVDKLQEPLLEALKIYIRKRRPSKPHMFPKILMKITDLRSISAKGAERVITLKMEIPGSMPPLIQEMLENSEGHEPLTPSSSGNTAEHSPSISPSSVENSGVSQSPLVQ
From the text: Assays described below measure the ability of a compound to bind to, and/or activate various retinoid receptor subtypes. When in these assays a compound binds to a given receptor subtype and activates the transcription of a reporter gene through that subtype, then the compound is considered an agonist of that receptor subtype. […] In the below described assays the ability of the compounds to bind to RARα, RARβ, RARγ, RXRα, RXRβ and RXRγ receptors, and the ability or inability of the compounds to activate transcription of a reporter gene through these receptor subtypes can be tested.
A holoreceptor transactivation assay and a ligand binding assay which measure the antagonist/agonist like activity of the compounds of the invention, or their ability to bind to the several retinoid receptor subtypes, respectively, are described in published PCT Application No. WO WO93/11755 (particularly on pages 30-33 and 37-41) published on Jun. 24, 1993, the specification of which is also incorporated herein by reference. A detailed experimental procedure for holoreceptor transactivations has been described by Heyman et al. Cell 68, 397-406, (1992); Allegretto et al. J. Biol. Chem. 268, 26625-26633, and Mangelsdorf et al. The Retinoids: Biology, Chemistry and Medicine, pp 319-349, Raven Press Ltd., New York, which are expressly incorporated herein by reference. The results obtained in this assay are expressed in EC50 numbers, as they are also in the chimeric receptor transactivation assay. The results of ligand binding assay are expressed in Kd numbers. (See Cheng et al. Biochemical Pharmacology Vol. 22 pp 3099-3108, expressly incorporated herein by reference.)
The results of the ligand binding assay for several preferred compounds of the invention are included in Table 1.

Row | Structure (SMILES) | IC50 (P450RAI-2) [nM] | Kd (RARβ) [nM]
1 | CC1(C)CC(C)(C)c2cc(C(=O)Oc3ccc(CC(=O)O)c(F)c3)cc(C#N)c2O1 [Compound 32, 8-Cyano-2,2,4,4-tetramethyl-chroman-6-carboxylic acid-4-carboxymethyl-3-fluoro-phenyl ester] | 900 | > 10000
2 | C#Cc1cc(C(=O)Oc2ccc(CC(=O)OCC)cc2)cc2c1OC(C)(C)CC2(C)C [Compound 2, 8-Ethynyl-2,2,4,4-tetramethyl-chroman-6-carboxylic acid 4-ethoxycarbonylmethyl-phenyl ester] | 6000 | > 10000
3 | C#Cc1cc(C(=O)Oc2ccc(CC(=O)O)c(F)c2)cc2c1OC(C)(C)CC2(C)C [Compound 4, 8-Ethynyl-2,2,4,4-tetramethyl-chroman-6-carboxylic acid-4-carboxymethyl-3-fluoro-phenyl ester] | 60 | 6560
4 | C#Cc1cc(C(=O)Oc2ccc(CC(=O)O)cc2)cc2c1OC(C)(C)CC2(C)C [Compound 1, 8-Ethynyl-2,2,4,4-tetramethyl-chroman-6-carboxylic acid 4-carboxymethyl-phenyl ester] | 14 | > 10000
5 | CC(=O)OCOC(=O)Cc1ccc(OC(=O)c2cc(C#N)c3c(c2)C(C)(C)CC(C)(C)O3)cc1F [Compound 33, 8-Cyano-2,2,4,4-tetramethyl-chroman-6-carboxylic acid 4-acetoxymethoxycarbonylmethyl-3-fluoro-phenyl ester] | 700 | > 10000
6 | C#Cc1cc(C(=O)Oc2ccc(CC(=O)OCOC(C)=O)c(F)c2)cc2c1OC(C)(C)CC2(C)C [Compound 5, 8-Ethynyl-2,2,4,4-tetramethyl-chroman-6-carboxylic acid 4-acetoxymethoxycarbonylmethyl-3-fluoro-phenyl ester] | 30 | 5550
7 | C#Cc1cc(C(=O)Oc2ccc(CC(=O)OCOC(C)=O)cc2)cc2c1OC(C)(C)CC2(C)C [Compound 3, 8-Ethynyl-2,2,4,4-tetramethyl-chroman-6-carboxylic acid 4-acetoxymethoxycarbonylmethyl-phenyl ester] | 80 | > 10000

Other lines, results leading:

Row | IC50 (P450RAI-2) [nM] | Kd (RARβ) [nM] | Structure (SMILES)
8 | 120 | > 10000 | C#CCc1cc(C#Cc2ccc(CC(=O)O)cc2)cc2c1OC(C)(C)CC2(C)C [Compound 49]
9 | 4 | 4950 | C#Cc1cc(C#Cc2ccc(CC(=O)O)c(F)c2)cc2c1OC(C)(C)CC2(C)C [Compound 41, [4-(8-Ethynyl-2,2,4,4-tetramethyl-chroman-6-ylethynyl)-2-fluoro-phenyl]-acetic acid]
10 | 7 | 7620 | C#Cc1cc(C#Cc2ccc(CC(=O)O)cc2)cc2c1OC(C)(C)CC2(C)C [Compound 40, [4-(8-Ethynyl-2,2,4,4-tetramethyl-chroman-6-ylethynyl)-phenyl]-acetic acid]
